Holding throughout (format): functional, cell-based, Cricetulus griseus
The target in experiment [1] is T1, Voltage-gated L-type calcium channel (Homo sapiens, UniProt Q13936+Q13698+Q01668+O60840). Kind of experiment: (§1) Inhibition of Cav1.2 current measured using QPatch automatic path clamp system in CHO cells expressing Cav1.2, beta-2 and alpha-2/delta-1 subunits. Set-up: ca sol conc 1.8 mM, temp Ambient.
In experiment [2] the target is T1, Voltage-gated L-type calcium channel. Nature of the experiment: Inhibition of Cav1.2 current measured using PatchXpress automatic path clamp system in CHO cells expressing Cav1.2, beta-2 and alpha-2/delta-1 subunits. Further details: ca sol conc 1.8 mM, temp Ambient.
The target is the same in experiment [3]. The description is as §1.

Consider `CO/N=C(\C(=O)N[C@@H]1C(=O)N2C(C(=O)O)=C(CSc3nc(=O)c(O)nn3C)CS[C@H]12)c1csc(N)n1` [CEFTRIAXONE], for which, in experiment [1], the 50% inhibitory concentration (IC50) worked out at 153.8 µM.
On the same count and under the same terms, in the case of `O=C1CCc2cc(OCCCCc3nnnn3C3CCCCC3)ccc2N1` [CILOSTAZOL] it was 91.2 µM; in that of `COc1cc(N)c(Cl)cc1C(=O)NC1CCN(CCCOc2ccc(F)cc2)CC1OC` (stereo not given) [CISAPRIDE], 11.8 µM; in that of `CC(C)N(CCC(C(N)=O)(c1ccccc1)c1ccccn1)C(C)C` (stereo not given) [DISOPYRAMIDE], 1036.7 µM.
For the molecule `O=C(CCCN1CC=C(n2c(=O)[nH]c3ccccc32)CC1)c1ccc(F)cc1` [DROPERIDOL], the IC50 in experiment [1] was found to be 7.6 µM.
In the case of `CCCCCCCN(CC)CCCC(O)c1ccc(NS(C)(=O)=O)cc1` (stereo not given) [IBUTILIDE], the IC50 in experiment [1] is 62.5 µM.
As for `CC(=O)NC[C@H]1CN(c2ccc(N3CCOCC3)c(F)c2)C(=O)O1` [LINEZOLID], the IC50 in experiment [1] was 105.4 µM.
With `Cc1nc2n(c(=O)c1CCN1CCC(c3noc4cc(F)ccc34)CC1)CCCC2O` (stereo not given) [PALIPERIDONE], the IC50 in experiment [1] was found to be 193.9 µM.
Turning to `Fc1ccc([C@@H]2CCNC[C@H]2COc2ccc3c(c2)OCO3)cc1` [PAROXETINE], the IC50 in experiment [1] stood at 3.9 µM.
For `CCCC(C)C1(CC)C(=O)NC(=O)NC1=O` (stereo not given) [PENTOBARBITAL], the IC50 in experiment [2] turned out to be 299 µM.
`O=C1NC(=O)C(c2ccccc2)(c2ccccc2)N1` [PHENYTOIN]: the half-inhibitory concentration (IC50) in experiment [1] came out at 21.9 µM.
Take `CCN1CCN(C(=O)N[C@@H](C(=O)N[C@@H]2C(=O)N3[C@@H]2SC(C)(C)[C@@H]3C(=O)O)c2ccccc2)C(=O)C1=O` [PIPERACILLIN]: in experiment [1], the IC50 is 1226 µM.
For `NC(=O)c1ncn([C@@H]2O[C@H](CO)[C@@H](O)[C@H]2O)n1` [RIBAVIRIN], in experiment [1], the IC50 stood at 622.5 µM.
Same read-out and setting: as for `O=C1NCCN1CCN1CCC(c2cn(-c3ccc(F)cc3)c3ccc(Cl)cc23)CC1` [SERTINDOLE], the figure is 6.3 µM; as for `N[C@@H](CC(=O)N1CCn2c(nnc2C(F)(F)F)C1)Cc1cc(F)c(F)cc1F` [SITAGLIPTIN], 147.1 µM.
Take `C[C@@H]1CN(c2c(F)c(N)c3c(=O)c(C(=O)O)cn(C4CC4)c3c2F)C[C@H](C)N1` [SPARFLOXACIN]: in experiment [1], the concentration for half-maximal inhibition (IC50) is 88.8 µM.
For the molecule `CCN(CC)CCNC(=O)c1c(C)[nH]c(/C=C2\C(=O)Nc3ccc(F)cc32)c1C` [SUNITINIB], the IC50 in experiment [1] came to 33.4 µM.
On to `Cc1cn([C@@H]2C[C@@H](O)[C@H](CO)O2)c(=O)[nH]c1=O` [TELBIVUDINE], for which the concentration for half-maximal inhibition (IC50) in experiment [1] came to 713.9 µM.
`CC(CC(c1ccccc1)c1ccccc1)NC(C)(C)C` (stereo not given) [TERODILINE]: the concentration for half-maximal inhibition (IC50) in experiment [1] was found to be 4.8 µM.
On to `C[C@@H](c1ncncc1F)[C@](O)(Cn1cncn1)c1ccc(F)cc1F` [VORICONAZOLE], for which the IC50 in experiment [3] was 414.2 µM.

Source of the values: ChEMBL document CHEMBL3436045 (Sci Rep, 2013).
